Laboratory results published in US8158340B2, “Methods for detecting conformational changes in bioentities” (Corning Incorporated, priority 2005, dated 2012).
Counter-ions that a name gives are not always drawn.

What was measured:
[1] = target: T1, H.S.A. (Homo sapiens, UniProt P02768); test: Tryptic digestion of H.S.A. after chemical modification; assay type: biochemical; conditions: 5 minute treatment of 2,3-butanedione; FIG. 20
Source text: In this type of assay, the digestion signal can be used as a means for screening large compound libraries for modulators of digestion (i.e. inhibitors or enhancers). The digestion inhibitors could be directed against-any lytic agent including but not limited to peptidases (as in the Caspase assay), proteases, nucleases, glucuronidase, glucosidase, lipases and the like. The assay is capable of detecting small molecule inhibitors of digestion of any molecular weight size. […] The extent to which an inhibitor can prevent digestion is assayed. […] The bar in FIG. 20, labeled 2,3-butanedione represents the net tryptic digestion of H.S.A. after a 5 minute treatment of 2,3-butanedione. The chemical 2,3-butanedione is an effective chemical modifier of amino acids such as lysine or arginine and is known in the art as an effective inhibitor of trypsin digestion via target modification.

[2] = target: T1, H.S.A.; test: Percent crosslinking of H.S.A. with glutaraldehyde in presence of denaturants; assay type: biochemical; conditions: as the concentration of denaturing agent increased; FIGS. 7-10
Protocol: The fractional amount of chemical crosslinking was measured by taking the ratio of added crosslinker attached to the protein relative to amount of initial protein on the sensor. Initially, protein is immobilized and washed on the Epic™ sensor and then measured for amount of immobilized protein. The protein is exposed to glutaraldehyde with a specified solution condition. The mass change that resulted from crosslinking is recorded again on the Epic™ system. The ratio of picometer change by crosslinker (due to mass increase) to mass of protein immobilized (as measured by initial change in picometer due to protein immobilization) is referred to as the fractional amount of crosslinking (% XL or % crosslinking), which is depicted in FIG. 6. This mass change by chemical crosslinking provides a “snap shot” of the conformational state accessible to cross linker.
As a protein or bioentity is denatured it should unfold and thereby increase the number of available sites for crosslinking.

[3] = target: T2, Calmodulin (CAM) (Homo sapiens, UniProt P0DP23); test: Surrogate binding: calcium additions to immobilized calmodulin on Epic biosensor; conditions: nine additions of 200 μM calcium chloride
T2 construct: purchased Upstate cell signaling solutions 14-368
Source text: In this assay, the detection of macromolecular events whose mass changes are below detection due to sparingly low refractive index changes on a biosensor are consequentially assayed through surrogate associations that are then detectable by refractive index changes (i.e., any event (ion or not) which conveys a signature through association and is assayable on a biosensor).
Calmodulin (CAM) is a classic calcium binding protein. It binds four calcium ions per protein. At saturation, four ligands at a mass of 40 Daltons equals 160 Dalton is produced. This mass is expected to be below normal direct bind detection. However, upon calcium binding CAM undergoes a dramatic conformational transition. The physical changes by CAM play a crucial role in the functioning of this molecule in vivo. Fluorescent probes that sense hydrophobic transitions have been used for more than a decade. […] Calmodulin was chosen as the model system for the concept of surrogate direct binding because the binding of calcium to this protein should not be readily detectable on a biosensor (4×40 Dalton for calcium=160 Da).
CAM was ordered through Upstate cell signaling solutions (Cat #14-368). […] Yet, when a hydrophobic probe is employed (a surrogate direct bind probe), a calcium modulation interaction is detected.

[4] = target: equine cytochrome C (Equus caballus, UniProt P00004); test: Catalytic digestion: trypsin digestion of immobilized cytochrome C with degrading catalyst; assay type: biochemical; conditions: 15 units of trypsin per well, FIG. 2
Protocol: Chem. Soc., 2004, 126:12833-12842 and tested as a degrading catalyst. On the Epic™ System, equine cytochrome C was chemically immobilized onto the EMA surface. The comparative trypsin digestion on the Epic™ system was measured. […] In these assays, 15 units of trypsin were used in each well. No titration was done for the enzyme, the cytochrome protein or the copper II porphyrin.

[5] = target: T1, H.S.A.; test: Conformational mode locking: trypsin digestion of H.S.A. after glutaraldehyde crosslinking; assay type: biochemical; conditions: 10% glutaraldehyde in 0.1 M phosphate pH 7
Source text: The use of covalent chemical crosslinking as a way of assaying conformational states or transitions of bioentities was investigated. H.S.A. was immobilized on an Epic™ sensor. The protein was crosslinked with glutaraldehyde under a variety of conditions (FIG. 5). Glutaraldehyde is a small molecular weight organic chemical (100 Dalton). It can undergo a variety of chemical crosslinking events with either itself or several amino acids. For this study, 10% glutaraldehyde in 0.1 M phosphate pH 7 was used. This was done to avoid the possibility of polymeric glut from forming. The amount of protein immobilized on the surface was also measured as well as the amount of chemical crosslinking and trypsin digestion. […] This effect was expected since crosslinking should affix the protein to the surface and render mass loss incapable. This finding should permit the ability to immobilize affinity capture molecules like antibodies and streptavidin and after crosslinking prevent their digestion. These crosslinked capture structures can then be used to specifically orient their antigens for antigen specific digestion.

[6] = tested on: rabbit IgG; test: Trypsin digestion of rabbit IgG plus warfarin (specificity control); assay type: biochemical; conditions: generic protein control
Source text: (§1) The data indicates several properties.

[7] = tested on: trypsin; test: Trypsin digestion of standard fluorescent substrate BZIP plus warfarin (specificity control); assay type: biochemical
Source text: It is contemplated that any conformationally altered ligand-bioentity complex can be further confirmed or characterized through secondary analysis such as peptide digest mapping, deuterium exchange studies, Michaelis-Menten kinetic studies, circular dichroism, intrinsic fluorescence analysis, competition studies with fluorescence polarization assays and the like. In addition, the effects that a ligand or putative ligand may have on the digesting agent may be analyzed using a known non-binding agent or through kinetic analysis using fluorescent assays or absorbance assays. For example, rhodamine 110, bis-(CBZ-L-isoleucyl-L-prolyl-L-arginine amide), dihydrochloride (BZiPAR, Invitrogen Inc.) may be used in fluorescence assays with trypsin and a putative ligand. Similarly, Nα-benzoyl-L-arginine ethyl ester hydrochloride (BAEE) may also be used for spectrophotometric assays with trypsin and other proteases.
as §1

[8] = tested on: trypsin or chymotrypsin; test: Conformational assay: label-independent digestion of immobilized albumins; assay type: biochemical; conditions: relative to normal BSA; FIGS. 3 and 4
Protocol: In this assay, it was determined whether or not a label-independent detection assay can distinguish between different albumins by digestion with either trypsin or chymotrypsin on the Epic™ system.

[9] = tested on: trypsin; test: Comparative trypsin digestion of myoglobin, apomyoglobin and heme-inserted apomyoglobin on Epic system; assay type: biochemical; conditions: approximately 23 minutes; for trypsin digestion (refractive index change): 15 units of trypsin in 1× PBS, FIGS. 18 and 19
Protocol: The heme inserted wells as well as the apoprotein and myoglobin wells were digested using 15 units of trypsin in 1× PBS. The digestion process was allowed to proceed for approximately 23 minutes with continuous monitoring of refractive index changes on the LID system. The hierarchy of digestion followed the following order; myoglobin (−250 pm)<apomyoglobin with heme (−350 pm)<apomyoglobin (−500 pm) (FIGS. 18 and 19). […] The difference between the native myoglobin and the heme inserted apomyoglobin may be a result of slight denaturation effects that were introduced in the preparation of the apomyoglobin protein.

T1 sequence (P02768 25-609): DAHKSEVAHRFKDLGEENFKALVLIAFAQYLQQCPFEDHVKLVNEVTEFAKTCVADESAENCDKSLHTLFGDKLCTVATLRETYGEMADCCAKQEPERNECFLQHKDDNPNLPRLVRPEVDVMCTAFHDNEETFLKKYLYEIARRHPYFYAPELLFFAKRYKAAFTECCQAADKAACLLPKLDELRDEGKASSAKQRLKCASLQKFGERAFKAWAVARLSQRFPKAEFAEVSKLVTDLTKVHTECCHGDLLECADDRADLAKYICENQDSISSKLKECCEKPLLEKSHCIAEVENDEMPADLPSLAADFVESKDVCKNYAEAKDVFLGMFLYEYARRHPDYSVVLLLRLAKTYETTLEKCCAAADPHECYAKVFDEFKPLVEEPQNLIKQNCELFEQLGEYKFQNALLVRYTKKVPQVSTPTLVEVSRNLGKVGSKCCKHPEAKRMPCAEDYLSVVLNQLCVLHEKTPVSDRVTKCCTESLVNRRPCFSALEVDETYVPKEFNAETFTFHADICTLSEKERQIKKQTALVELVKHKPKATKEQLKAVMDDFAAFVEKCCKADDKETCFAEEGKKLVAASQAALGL
equine cytochrome C, sequence (P00004 whole entry): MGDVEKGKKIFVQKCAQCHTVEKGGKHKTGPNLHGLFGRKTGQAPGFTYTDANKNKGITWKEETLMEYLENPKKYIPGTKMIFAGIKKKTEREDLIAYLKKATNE

## CC(=O)C(C)=O [2,3-butanedione]
[1]
  net tryptic digestion of H.S.A. after chemical modification: digestion is effected by chemical modification

## [Cl-].[Cl-].[Mg+2] [MgCl]
[2]
  percent crosslinking of H.S.A. with glutaraldehyde: increasing percent crosslinking

## [Cl-].[Na+] [NaCl]
[2]
  percent crosslinking of H.S.A. with glutaraldehyde: increasing percent crosslinking

## NC(N)=O [Urea]
[2]
  percent crosslinking of H.S.A. with glutaraldehyde: increasing percent crosslinking

## [Ca+2].[Cl-].[Cl-] [calcium chloride]
[3]; 100 μM ANS hydrophobic probe present
  binding detection of calcium to CAM with surrogate probe: binding event
[3]; CAM in 1×PBS without probe, relative to blocked wells
  direct bind detection of calcium to CAM: no binding data

## O=C(O)c1ccc(-c2c3nc(c(-c4ccc(C(=O)O)cc4)c4ccc([nH]4)c(-c4ccc(C(=O)O)cc4)c4nc(c(-c5ccc(C(=O)O)cc5)c5ccc2[nH]5)C=C4)C=C3)cc1.[Cu+2] [copper (II) tetra-(4-carboxyphenyl)porphyrin]
[4]
  trypsin digestion of cytochrome C with degrading catalyst: significant enhancement of digestion

## O=CCCCC=O [glutaraldehyde]
[5]
  proteolytic (trypsin) digestion of H.S.A. after chemical crosslinking: dramatically inhibited/attenuated

## N=C(N)N [guanidine HCL]
[2]
  percent crosslinking of H.S.A. with glutaraldehyde: increasing percent crosslinking

## CC(=O)CC(c1ccccc1)c1c(O)c2ccccc2oc1=O (centres unmarked) [warfarin]
[6]
  reduction in trypsin digestion rate, rabbit IgG plus warfarin: no such reduction in digestion rate was observed
[7]
  reduction in trypsin digestion rate, BZIP plus warfarin: no such reduction in digestion rate was observed

## acetylated BSA: acetylated bovine serum albumin immobilized on the biosensor
[8]
  digestion profile of immobilized albumin: dramatic enhanced digestion profile

## heme
[9]; 15 units of trypsin
  reduction in digestion of apomyoglobin caused by heme insertion: 140 picometer

## methylated BSA: methylated bovine serum albumin immobilized on the biosensor
[8]
  digestion profile of immobilized albumin: dramatic reduction in digestion rates

B1: myoglobin: native horse myoglobin (protein, UniProt P68082 2-154, looked up)
Myoglobin: GLSDGEWQQVLNVWGKVEADIAGHGQEVLIRLFTGHPETLEKFDKFKHLKTEAEMKASEDLKKHGTVVLTALGGILKKKGHHEAELKPLAQSHATKHKIPIKYLEFISDAIIHVLHSKHPGDFGADAQGAMTKALELFRNDIAAKYKELGFQG
[9]
  trypsin digestion (refractive index change): −250 pm

B2: apomyoglobin with heme: apomyoglobin after heme insertion with 2 μM hemin (protein, UniProt P68082 2-154, looked up)
Myoglobin: B1 Myoglobin
modifications: heme reconstituted
notes: apomyoglobin after heme insertion with 2 μM hemin
[9]
  trypsin digestion (refractive index change): −350 pm

B3: apomyoglobin: horse apomyoglobin made by acid-acetone heme removal (protein, UniProt P68082 2-154, looked up)
Myoglobin: B1 Myoglobin
modifications: heme removed
notes: horse apomyoglobin made by acid-acetone heme removal
[9]
  trypsin digestion (refractive index change): −500 pm
